Patent US20030219476A1, “Liposomal formulation of mitoxantrone” (priority 2000, published 2003)
“Also recorded” adds a separate entry of the source. Counter-ions that a name gives are not always drawn. Like-named read-outs stand apart in the source and are kept apart here.

Experiments:
male CD2F1 mice [1] = test system: male CD2F1 mice
Protocol: Forty male CD2F1 mice weighing 20-22 g were acclimated for 1 week and randomly separated into 8 groups of five animals each with 5 animals per cage. On day 0 all groups of animals were injected i.v. in the tail vein with the drug or vehicle control and once daily thereafter for a period of 5 days. The volumes administered were varied based on individual animal weights. Mouse weights were recorded for each mouse on alternate days following injection and observations of clinical illness were recorded at least daily.

male CD2F1 mice [2] = test system: male CD2F1 mice; remark: listed apart in the source
Protocol: Thirty male CD2F1 mice weighing 20-22 g were acclimated for 1 week and randomly separated into 6 groups of five animals each with 5 animals per cage. On day 0 all groups of animals were injected i.v. in the tail vein with the drug or vehicle control and once daily thereafter for a period of 5 days. The volumes administered were varied based on individual animal weights. Mouse weights were determined for each mouse on alternate days following injection and observation for clinical illness were recorded at least daily.

L1210 leukemia cells = assay: L1210 ascitic leukemia survival, single dose (Example 14); type: in vivo, mice
Protocol: Murine leukemia cells, L1210 leukemia cells were grown in the peritoneum of CD2F1 mice by three serial propagations (i.p.). Ascites developed within eight days of the last inoculation were used in the following experiments. Cytostatic activities of liposomal and conventional formulations of mitoxantrone against L1210 ascitic leukemia was determined. Animal group weights were determined three times a week and clinically morbid animals were humanely sacrificed. The surviving mice were observed daily for 60 days. Group survival times post i.v. treatment with single or multiple doses of the drug was indicative of the relative anti-tumor potencies of liposomal and conventional mitoxantrone.
Female CD2F1 mice were divided into eight groups of 10 animals and inoculated i.v. with 10,000 L1210 cells. Drug was administered twenty-four hours later. Conventional mitoxantrone was administered at doses of 5 and 10 mg/kg. […] Surviving animals were sacrificed on day 60 of the experiment. Blank liposomes equivalent to the 35, mg/kg dose and normal saline was also administered as controls.

beagle dogs = assay: Repeated-dose i.v. toxicity in beagle dogs (Example 18)
Protocol: Conventional mitoxantrone was administered to beagle dogs (3/sex/group) at i.v. dosages of 0 (saline), 0.129 or 0.258 mg/kg (2.6 or 5 mg/m^2) on Days 1, 23, 43 and 65. […] Evaluations for compound-related effects were based on clinical observations, body weight, food consumption, ophthalmologic and ECG examination, clinical pathology, plasma drug concentrations, organ weights and gross and microscopic postmortem examinations.

in vivo [3] = conditions: male, CD2F1, mouse, plasma, iv, 5 mg/kg
Protocol: Plasma and tissue samples were analyzed for mitoxantrone by reverse phase HPLC. Plasma samples (0.25 ml) were mixed with 0.5 ml of solution of 0.01 mg/ml hexanesulfonic acid, 0.5 mg/ml ascorbic acid, and 0.25 μg ametantrone as internal standard. After vortexing for 30 sec., 0.5 ml of 0.1 M borate buffer (pH 9.5) and 150 μl of 1 M sodium hydroxide was added and the solution vortexed again for 30 sec. […] The organic layer (9 ml) was separated and evaporated under nitrogen. Samples were reconstituted with 10 μl of mobile phase prior to HPLC analysis. Tissue samples were homogenized in 1 ml of solution containing 20% ascorbic acid in 0.1 M citrate buffer, pH 3.0, and extracted as described above. Mitoxantrone was separated by reverse-phase chromatography (Waters μBondapak® C-18) using a mobile phase of 33% acetonitrile, and 67% 0.16 M ammonium formate buffer, pH 2.7 delivered at a flow rate of 1 ml/min. Mitoxantrone was detected at 600 nm. The limit of sensitivity was 10 ng/ml.
Plasma Pharmacokinetic parameters were assessed by standard methods. The elimination rate constant (K) was calculated from the linear regression analysis of plasma concentration-time curve. The area under the curve (AUC0→∞) was calculated using the linear trapezoidal method with extrapolation of the terminal phase to infinity (Clast/K), where Clast is the last measured concentration. Other parameters calculated were total body clearance (Cl) as Dose/AUC; volume of distribution (Varea)=Cl/K; elimination half-life (t1/2)=0.693/Karea.

[4] = Plasma pharmacokinetics in dogs (Example 17)
Protocol: (§1) Time points analyzed were 0, 5 and 30 min and 1, 2, 4, 8 and 24 h after a single dose administration.

male CD2F1 mice [5] = conditions: 25 mg/kg single i.v.
Protocol: Twenty male CD2F1 mice weighing 20-22 g were acclimated for 1 week and randomly separated into 4 groups of five animals each with 5 animals per cage. On day 0 all groups of animals were injected i.v. in the tail vein with the drug or vehicle control. The volumes administered were varied based on individual animal weights. Mouse weights were recorded for each mouse on alternate days following injection and observation for clinical illness were recorded at least daily.

[6] = test system: human hormone-refractory prostate tumor cells (PC-3)
Protocol: Male Balb/c, nu/nu, 6-8 week old mice were inoculated with 5×10^6 of human hormone-refractory prostate tumor cells (PC-3). Tumor growth was monitored twice a week until the tumor volumes were in the range of […]. Animals were then divided into groups and were treated by i.v. injection via the tail vein with conventional mitoxantrone at doses of 0.625, 1.25, 2.5, and 5 mg/kg once every other day for four days. Doses of mitoxantrone formulated in liposomes were 2.5, 5, 7.5, and 10 mg/kg. Control animals received either normal saline or blank liposomes. The median survival time was calculated and all surviving animals were sacrificed on Day 34.
In these experiments tumor volumes were measured once or twice a week by measuring the three major axes.

male CD2F1 mice [7] = test system: male CD2F1 mice; remark: listed apart in the source
Protocol: Seventy male CD2F1 mice weighing 20-22 g were acclimated for 1 week and randomly separated into 7 groups of ten animals each with 5 animals per cage. On day 0 all groups of animals were injected i.v. in the tail vein with the drug or vehicle control. The volumes administered were varied based on individual animal weights. Mouse weights were recorded for each mouse on alternate days following injection and observation for clinical illness were recorded at least daily.

male CD2F1 mice [8] = test system: male CD2F1 mice; remark: listed apart in the source
Protocol: Eighty male CD2F1 mice weighing 20-22 g were acclimated for 1 week and randomly separated into 8 groups of ten animals each with 5 animals per cage. On day 0 all groups of animals were injected i.v. in the tail vein with the drug or vehicle control. The volumes administered were varied based on individual animal weights. Mouse weights were recorded for each mouse on alternate days following injection and observation for clinical illness were recorded at least daily.

in vivo [9] = conditions: beagle, dog, plasma, iv, 0.26 mg/kg
Protocol: as §1

[10] = conventional 5 mg/kg, liposomal 10 mg/kg, daily x5

## O=C1c2c(O)ccc(O)c2C(=O)c2c(NCCNCCO)ccc(NCCNCCO)c21 [conventional mitoxantrone, mitoxantrone hydrochloride]
Male CD2F1 mice [1]; 5 and 7.5 mg/kg daily x5
  animals that died: all of the animals
Male CD2F1 mice [1]; 5 and 7.5 mg/kg daily x5, by day 7
  progressive weight loss: about 25%
Male CD2F1 mice [1]; 5 or 7.5 mg/kg daily x5, several mice
  hepatocellular vacuolar degeneration: Some hepatocellular vacuolar degeneration
Male CD2F1 mice [1]; conventional 5, 7.5 mg/kg, liposomal 7.5 mg/kg, daily x5
  leukopenia in moribund-sacrificed mice: marked, clinically significant, compound related leukopenia
Male CD2F1 mice [1]; day 6, conventional 2.5, 5, 7.5 mg/kg, liposomal 7.5 mg/kg, daily x5
  clinical signs: ruffled fur and hunching behavior
Male CD2F1 mice [1]; liposomal any dose (2.5-7.5 mg/kg), conventional […], daily x5
  morbidity or mortality: no morbidity or mortality
Male CD2F1 mice [2]; 5 mg/kg daily x5
  lethality (mice tested): 100%
Male CD2F1 mice [2]; 5 mg/kg daily x5, by day 9
  progressive weight loss: about 35%
Male CD2F1 mice [2]; by day 8, conventional 5 mg/kg/day vs liposomal 10 mg/kg/day
  acute liver injury (ALT, AST, bilirubin): roughly equivalent acute liver injury
Male CD2F1 mice [2]; [10]
  AST and ALT in moribund sacrificed animals: marked elevations in AST and ALT
  leukopenia in moribund animals: marked leukopenia
  mice with bilirubin concentration greater than in control mice: 3 of the 4
Male CD2F1 mice [2]; conventional 2.5, 5 mg/kg, liposomal 10 mg/kg, daily x5
  clinical signs: ruffled fur and hunching behavior
5 mg/kg single i.v.
  tissue concentration, kidneys: ~40 µg/g
  tissue concentration, lungs: approximately 20 μg/g
5 mg/kg single i.v., 5 and 15 minutes
  heart tissue concentration: approximately 10 μg/g
5 mg/kg single i.v., 5 minutes
  heart concentration (peak): 11 µg/g
5 mg/kg single i.v., end of time course
  liver concentration after gradual decrease: ~2 µg/g
5 mg/kg single i.v., start of time course
  liver concentration, initial: approximately 19 μg/g
All time points, 5 mg/kg i.v.
  heart, lung and kidney concentrations, comparison of formulations: higher
L1210 leukemia cells; 5 mg/kg single i.v., 24 h after 10,000 L1210 cells i.v.
  median survival: 12 days
L1210 leukemia cells; 10 mg/kg single i.v.
  animals alive at day 60: 2/10
  median survival time: 20 days
Beagle dogs; 0.129 and 0.258 mg/kg, 4 to 10 days following each dose cycle, dose related
  hematology: leukopenia and thrombocytopenia
Beagle dogs; any examination time
  ECG parameters: no changes in ECG parameters
Beagle dogs; any groups
  food consumption: no changes in food consumption
Beagle dogs; any of the dosage groups
  coagulation or clinical chemistry parameters: No changes
Beagle dogs; conventional: all animals, liposomal: female dogs
  anemia: Anemia did not occur
Beagle dogs; conventional: males at 0.258 mg/kg, liposomal: all dose groups, Days 1, 23, 43, 65
  body weight: lost weight
In vivo [3]
  AUC: 140 ng·h/mL
  Cmax: 410 ng/mL
  Vd: 5.5 L/kg
  clearance: 600 mL/min/kg
  half-life: 6.6 min
[4]; 0.26 mg/kg i.v., male dogs, mean
  V: 2.8 L/kg
[4]; high dose (0.26 mg/kg)
  time point at which plasma concentrations could not be measured: 30 min
Male CD2F1 mice [5]
  morbidity: 100%
[6]; 0.625 and 1.25 mg/kg i.v. once every other day
  survival by day 34: 100%
[6]; 2.5 and 5 mg/kg i.v. once every other day
  survival by day 34: no animals
[6]; in vivo
  toxicity in tumor-bearing mice: Severe toxicity
Male CD2F1 mice [7]; 10 mg/kg single i.v., gradual recovery
  initial weight loss: 13%
Male CD2F1 mice [7]; 25 mg/kg single i.v.
  morbidity: 100%
Male CD2F1 mice [7]; day 3, one mouse each: conventional 25 mg/kg, liposomal 35 mg/kg
  ALT activities: modest increases in ALT activities
Male CD2F1 mice [8]; 10 mg/kg single i.v., by day 10, then gradual recovery
  weight loss: 20%
Male CD2F1 mice [8]; 15 mg/kg single i.v. dose
  morbidity: 100%
Male CD2F1 mice [8]; 15 mg/kg single i.v., by day 9/10
  weight loss: about 35%
Male CD2F1 mice [8]; 15 mg/kg single i.v., day 10, hydrochloride
  ALT: Clinically significant elevations in ALT; also recorded: significant increases in ALT
Male CD2F1 mice [8]; 15 mg/kg single i.v., two mice
  BUN: modest elevations in BUN
Male CD2F1 mice [8]; single i.v. dose, spleen and bone marrow
  histopathology: compound effects on hematopoietic and lymphoid tissues of the spleen and bone marrow
Male CD2F1 mice [8]; single i.v., conventional 5 mg/kg, liposomal 5, 10, 15 mg/kg
  body weight course (remaining groups): gained weight steadily
In vivo [9]; female
  Cmax: 60 ng/mL
In vivo [9]; male
  Cmax: 84 ng/mL
  clearance: 89 mL/min/kg
  half-life: 21.6 min
